# Entries after “also recorded” stand apart in the source; their conditions may differ.
# Legend:
# Format in all cases: cell-based, rat
# TNF-α = assay: RT-PCR of PA-induced TNF-α gene expression in L6-GLUT4myc myotubes; conditions: CDDO-EA 500 nM 1 h then PA 400 μM 6 h
# Procedure: L6-GLUT4myc myotubes were pretreated with CDDO-EA (500 nM, 1 h) and treated PA (400 μM, 6 h). TNF-α and MCP-1 gene expression were measured by RT-PCR. Data are represented as +SEM *P<0.05 vs. control, ^#P<0.05 vs. control. * P<0.05 vs. LPS, $P<0.05 vs. PA. (One-Way ANOVA).
# GLUT4 = assay: Colorimetric assay of cell surface GLUT4 in L6GLUT4myc myotubes (preliminary data); conditions: FIG. 30
# Procedure: Is CDDO-EA-mediated GLUT4 translocation dependent on AMPK activation? The catalytic subunit alpha-1 (α1) of AMPK will be KD by siRNA. Cells will be treated with CDDO-EA (500 nM, 1 hour), insulin ([…] for 15 min), or insulin and CDDO-EA to determine if there is a synergistic effect on GLUT4 translocation. Also, cells will be treated with the AMPK activator, 5-aminoimidazole-4-carboxamide ribonucleoside (AICAR, 1 mM, 40 minutes), as a positive control. We will use a colorimetric assay to quantitatively measure the levels of cell surface GLUT4 in 3T3-L1 adipocytes and L6GLUT4myc myotubes^37. […] GLUT4 translocation will be detected via immunofluorescence. Subcellular protein fractionation will be conducted to detect GLUT4 in the sarcolemma for myotubes and plasma membrane for adipocytes and GLUT2 in the plasma membrane of hepatocytes via Western blotting. GLUT2 will be measured in hepatocytes because GLUT2 is the most abundant glucose transporter in hepatocytes^38. To measure glucose uptake, a non-radioactive, plate-based bioluminescent assay (Glucose Uptake-Glo, Promega) will be performed. Using Glucose Uptake-Glo, insulin induces glucose uptake in L6GLUT4my myotubes. Phosphorylation of AMPK at Thr^172 and phosphorylation of ACC at Ser^79 indicates activation of the AMPK pathway. Thus, phosphorylation of AMPK Thr^172 and ACC Ser^79 will be shown through Western blotting. […]
# IκB-α (Ser32) = assay: Western blot of LPS-induced IκB-α phosphorylation in L6-GLUT4myc myotubes; conditions: 500 nM CDDO-EA 1 hr then 100 ng/ml LPS 1 hr
# Description: To examine the anti-inflammatory properties of CDDO-EA in skeletal muscle cells, CDDO-EA was examined for its effect on nuclear factor-kappa B (NF-κB) activity in L6-GLUT4myc muscle cells, in the context of LPS-mediated inflammatory responses in L6-GLUT4myc muscle cells. All experiments were independently repeated one to four times and done in duplicate or triplicate, and data were statistically analyzed by One-Way ANOVA or unpaired t-test, two tailed.
# Cells were studied with vehicle alone [0.125% dimethyl sulfoxide (DMSO)] and LPS with and without CDDO-EA. […]
# Western blotting and subcellular fractionation: L6-GLUT4myc myoblasts (4×10^4 cells/ml, 2 ml/well) were seeded onto 6-well dishes and differentiated with differentiation medium for 7 days. […] Protein concentrations were determined using the Pierce BCA Protein Assay (Thermo Fisher Scientific), and equal amounts of protein were separated by electrophoresis and subsequently transferred to nitrocellulose membranes. Membranes were analyzed using the following antibodies from Cell Signaling Technology: phosphorylated NF-κB (Ser536) (93 H1, cat #3033,1:1000), phosphorylated IKB-α (Ser32) (14D4, cat #2859,1:1000), IKB-α (44D4, cat #4812, 1:1000), phosphorylated p38 (Thr180/Tyr182) (cat #9211, 1:1000), p38 (cat #9212, 1:1000). […] Bands were quantitated using ImageQuant (GE Healthcare). […]
smiles,measurement,setting,value
"CCNC(=O)[C@]12CCC(C)(C)C[C@H]1C1C(=O)C=C3[C@@]4(C)C=C(C#N)C(=O)C(C)(C)[C@@H]4CC[C@@]3(C)[C@]1(C)CC2 (stereo partly drawn) [CDDO-EA, (4aS,6aR,6bS,8aR,12aS,14bS)-11-cyano-N-ethyl-2,2,6a,6b,9,9,12a-heptamethyl-10,14-dioxo-1,3,4,5,6,6a,6b, 7,8,8a,9,10,12a, 14,14a, 14b-hexadecahydropicene-4a (2H)-carboxamide]",PA-induced TNF-α gene expression,TNF-α,inhibits PA-induced NF-κB activation and MCP-1 and TNF-α gene expression; also recorded: blocks TNF-α and MCP-1 gene expression
same,GLUT4 translocation to the cell surface (colorimetry assay),GLUT4,induce GLUT4 translocation to the cell surface
same,LPS-induced IκB-α phosphorylation,IκB-α (Ser32),decreased LPS-induced NF-κB and nuclear factor of kappa light polypeptide gene enhancer in B-cells inhibitor-alpha (IκB) phosphorylation; also recorded: inhibited the LPS-induced phosphorylation of IκB-α; also recorded: inhibits lipopolysaccharide (LPS)-induced NF-κB and Inhibitory kappa B alpha (IκB-α) phosphorylation
